# Key:
# sigma-2 receptor [1] = target: T1, sigma-2 receptor (Homo sapiens, UniProt Q5BJF2); conditions: literature (Perrone 2000; Berardi 1996); cited from earlier work
# sigma-2 receptor [2] = target: T1, sigma-2 receptor; conditions: literature (Perrone 2000; Berardi 1996); cited from earlier work; remark: listed apart in the source
# [3] = test system: sigma-2 receptor (affinity chromatography-eluted proteins from SK-N-SH membranes); experiment: saturation binding analysis with [3H]-DTG on affinity column-eluted proteins; set-up: species or system human; conditions: [3H]-DTG saturation, FIG. 2A
# Method: The samples, containing 400 μg of protein, radioligand, 10 μM of unlabeled DTG to determine nonspecific binding, and 1 μM of (+)-pentazocine to mask the sigma-1 receptors, were brought to equilibrium Into a final volume of 500 μL 50 mM Tris-HCl at pH 8.0 for 120 min at 25° C. At equilibrium, 5 mL buffer (50 mM Tris-HCl, pH 7.4) were added. Samples were filtered on GF/C membranes, acclimatized in 0.5% PEI for 30 min prior to use. Filters were washed twice with the buffer (5 mL). Radioactivity count was performed on a LS-6500 Beckman Scintillation Counter.
# sigma-2 receptor [4] = target: T1, sigma-2 receptor; experiment: sigma-2 receptor activity
# sigma-2 receptor [5] = target: T1, sigma-2 receptor; experiment: sigma-2 receptor affinity; type: binding
# [6] = test system: neuroblastoma or glioma tumour cells; experiment: antiproliferative assay (MTT); type: cell-based
# Method: (§1) The antiproliferative assay for compounds was performed by using the MTT assay (Mossman et al. 1983, J. Immunol. Methods 65, pp 55-63). The cytotoxicity assay was performed by measuring the LDH level as reported by Vilner and Bowen 2000, J. Pharmacol. Exp. Ther. 292, pp 408-413. The detailed experimental part is reported in Colabufo et al. 2004, Naunyn Schmiedeberg's Arch. Pharmacol. 370, pp. 106-113.
# [7] = target: mixture of the affinity column-eluted histone proteins (sigma-2 receptor); experiment: competition binding assay with [3H]-DTG on mixture of affinity column-eluted histone proteins; set-up: species or system human; conditions: 20 mcg histone proteins, radioligand [3H]-DTG
# Method: The formation of a complex was highlighted through an assay in which the histone proteins were suspended in 50 mM Tris pH 8.0. […] At equilibrium, determined by the above-mentioned kinetic studies, the histone/radioligand complex was separated after 120 min by filtration on glass fiber (GF/C) membranes, and quantification of the same was performed by radioactivity count.
# The sample was incubated for 120 min at 25° C., then the histone/radioligand complex was rapidly filtered on ø 25 mm GF/C membranes. The filter was washed twice with 3 mL buffer. Scintillation liquid was added and a radioactivity reading was performed. The displacement rate was calculated as difference (%) with respect to the specific binding measures by using 10 μM of DTG.
# [8] = test system: neuroblastoma or glioma tumour cells; experiment: cytotoxicity assay (LDH level); type: cell-based
# Method: as §1
# T1 sequence (Q5BJF2 whole entry, species assumed): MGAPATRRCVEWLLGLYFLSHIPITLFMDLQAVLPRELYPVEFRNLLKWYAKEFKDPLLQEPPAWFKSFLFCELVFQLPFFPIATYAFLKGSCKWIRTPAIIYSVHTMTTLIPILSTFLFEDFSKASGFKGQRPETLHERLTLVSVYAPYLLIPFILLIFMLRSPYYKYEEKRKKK
smiles,measurement,setting,value
COc1cccc2c1CCCC2CCCN1CCN(C2CCCCC2)CC1 (centres unmarked) [PB28],affinity for sigma-2 receptor,sigma-2 receptor [1],high affinity
same,agonist activity at sigma-2 receptor,sigma-2 receptor [2],potent agonist activity
Cc1ccccc1N=C(N)Nc1ccccc1C [[^3H]-DTG],Bmax,[3],588±50 fmol/mg of protein
"COc1ccc(N)c2c1CCCC2CCCN1CCN(C2CCCCC2)CC1 (centres unmarked) [compound 2, 1-cyclohexyl-4-[3-(8-amino-5-methoxy-1,2,3,4-tetrahydronaphtalen-1-yl)propyl]piperazine]",sigma-2 activity of amino-substituted ligand relative to PB28,sigma-2 receptor [4],unmodified
same,affinity of amino-substituted ligand relative to PB28,sigma-2 receptor [5],unmodified
COc1ccccc1[C@H]1CC[C@H](N2CCN(C3CCCCC3)CC2)CC1 [trans-1-cyclohexyl-4-[4-(2-methoxy-phenyl)cyclohexyl]piperazine],antiproliferative activity,[6],homogeneous to results reported in literature for the best ligand known to date: the compound PB28
same,Ki,[7],0.068 nM
same,cytotoxic activity,[8],homogeneous to results reported in literature for the best ligand known to date: the compound PB28
